Laboratory results: ChEMBL document CHEMBL5724806, “Unraveling interindividual differences and functional consequences of gut microbial metabolism of immunosuppressants” (2024)

How the values were obtained:
Type in all cases: ADME
[1] = (§1) The drug is tested on the gut metagenome community of A-07 with ENA study accession number: PRJEB31790 for biotransformation under anaerobic condition. The drug concentrations were measured over 7 timepoints collected between 0 and 12 hours of incubation by liquid-chromatography-coupled mass spectrometry (LC–MS); set-up: dose 5 uM, timepoint 0, 0.75, 1.5, 3, 6, 9, 12 hours; conditions: 5 µM
[2] = as §1, with “A-08” for “A-07”, “microaerobic” for “anaerobic”; set-up: dose 5 uM, timepoint 0, 0.75, 1.5, 3, 6, 9, 12 hours; conditions: 5 µM
[3] = The drug is tested on Faecalibacterium prausnitzii strain: DSM17677 for biotransformation under anaerobic condition. The drug concentrations were measured over 6 timepoints collected between 0 and 12 hours of incubation by liquid-chromatography-coupled mass spectrometry (LC–MS); set-up: dose 5 uM, timepoint 0, 1.5, 3, 6, 9, 12 hours; conditions: faecalibacterium duncaniae, 5 µM
[4] = as §1, with “T-02” for “A-07”; set-up: dose 5 uM, timepoint 0, 0.75, 1.5, 3, 6, 9, 12 hours; conditions: 5 µM
[5] = as §1, with “A-01” for “A-07”, “microaerobic” for “anaerobic”; set-up: dose 5 uM, timepoint 0, 0.75, 1.5, 3, 6, 9, 12 hours; conditions: 5 µM
[6] = as §1, with “P-04” for “A-07”; set-up: dose 5 uM, timepoint 0, 0.75, 1.5, 3, 6, 9, 12 hours; conditions: 5 µM
[7] = as §1, with “T-05” for “A-07”, “microaerobic” for “anaerobic”; set-up: dose 5 uM, timepoint 0, 0.75, 1.5, 3, 6, 9, 12 hours; conditions: 5 µM
[8] = The drug is tested on Streptococcus anginosus strain: DSM20563 for biotransformation under microaerobic condition. The drug concentrations were measured over 6 timepoints collected between 0 and 12 hours of incubation by liquid-chromatography-coupled mass spectrometry (LC–MS); set-up: dose 5 uM, timepoint 0, 1.5, 3, 6, 9, 12 hours; conditions: 5 µM
[9] = as §1, with “A-06” for “A-07”, “microaerobic” for “anaerobic”; set-up: dose 5 uM, timepoint 0, 0.75, 1.5, 3, 6, 9, 12 hours; conditions: 5 µM
[10] = The drug is tested on Streptococcus sanguinis strain: DSM20567 for biotransformation under anaerobic condition. The drug concentrations were measured over 6 timepoints collected between 0 and 12 hours of incubation by liquid-chromatography-coupled mass spectrometry (LC–MS); set-up: dose 5 uM, timepoint 0, 1.5, 3, 6, 9, 12 hours; conditions: 5 µM
[11] = The drug is tested on Lactobacillus paracasei strain: ATCC27092 for biotransformation under anaerobic condition. The drug concentrations were measured over 6 timepoints collected between 0 and 12 hours of incubation by liquid-chromatography-coupled mass spectrometry (LC–MS); set-up: dose 5 uM, timepoint 0, 1.5, 3, 6, 9, 12 hours; conditions: lacticaseibacillus paracasei, 5 µM
[12] = as §1, with “A-01” for “A-07”; set-up: dose 5 uM, timepoint 0, 0.75, 1.5, 3, 6, 9, 12 hours; conditions: 5 µM
[13] = as §1, with “P-02” for “A-07”; set-up: dose 5 uM, timepoint 0, 0.75, 1.5, 3, 6, 9, 12 hours; conditions: 5 µM
[14] = The drug is tested on Gemella morbillorum strain: DSM20572 for biotransformation under anaerobic condition. The drug concentrations were measured over 6 timepoints collected between 0 and 12 hours of incubation by liquid-chromatography-coupled mass spectrometry (LC–MS); set-up: dose 5 uM, timepoint 0, 1.5, 3, 6, 9, 12 hours; conditions: 5 µM
[15] = The drug is tested on Capnocytophaga ochracea strain: DSM7271 for biotransformation under anaerobic condition. The drug concentrations were measured over 6 timepoints collected between 0 and 12 hours of incubation by liquid-chromatography-coupled mass spectrometry (LC–MS); set-up: dose 5 uM, timepoint 0, 1.5, 3, 6, 9, 12 hours; conditions: 5 µM
[16] = The drug is tested on Escherichia coli strain: DSM27469 for biotransformation under microaerobic condition. The drug concentrations were measured over 6 timepoints collected between 0 and 12 hours of incubation by liquid-chromatography-coupled mass spectrometry (LC–MS); set-up: dose 5 uM, timepoint 0, 1.5, 3, 6, 9, 12 hours; conditions: 5 µM
[17] = The drug is tested on Lactobacillus gasseri strain: DSM20243 for biotransformation under anaerobic condition. The drug concentrations were measured over 6 timepoints collected between 0 and 12 hours of incubation by liquid-chromatography-coupled mass spectrometry (LC–MS); set-up: dose 5 uM, timepoint 0, 1.5, 3, 6, 9, 12 hours; conditions: 5 µM
[18] = The drug is tested on Streptococcus salivarius strain: DSM20560 for biotransformation under anaerobic condition. The drug concentrations were measured over 6 timepoints collected between 0 and 12 hours of incubation by liquid-chromatography-coupled mass spectrometry (LC–MS); set-up: dose 5 uM, timepoint 0, 1.5, 3, 6, 9, 12 hours; conditions: 5 µM
[19] = The drug is tested on Lactobacillus reuteri strain: DSM20016 for biotransformation under anaerobic condition. The drug concentrations were measured over 6 timepoints collected between 0 and 12 hours of incubation by liquid-chromatography-coupled mass spectrometry (LC–MS); set-up: dose 5 uM, timepoint 0, 1.5, 3, 6, 9, 12 hours; conditions: limosilactobacillus reuteri, 5 µM
[20] = The drug is tested on Streptococcus mitis strain: DSM12643 for biotransformation under microaerobic condition. The drug concentrations were measured over 6 timepoints collected between 0 and 12 hours of incubation by liquid-chromatography-coupled mass spectrometry (LC–MS); set-up: dose 5 uM, timepoint 0, 1.5, 3, 6, 9, 12 hours; conditions: 5 µM
[21] = as §1, with “A-05” for “A-07”, “microaerobic” for “anaerobic”; set-up: dose 5 uM, timepoint 0, 0.75, 1.5, 3, 6, 9, 12 hours; conditions: 5 µM
[22] = The drug is tested on Bifidobacterium adolescentis strain: DSM20083 for biotransformation under anaerobic condition. The drug concentrations were measured over 6 timepoints collected between 0 and 12 hours of incubation by liquid-chromatography-coupled mass spectrometry (LC–MS); set-up: dose 5 uM, timepoint 0, 1.5, 3, 6, 9, 12 hours; conditions: 5 µM
[23] = The drug is tested on Actinomyces graevenitzii strain: DSM15540 for biotransformation under microaerobic condition. The drug concentrations were measured over 6 timepoints collected between 0 and 12 hours of incubation by liquid-chromatography-coupled mass spectrometry (LC–MS); set-up: dose 5 uM, timepoint 0, 1.5, 3, 6, 9, 12 hours; conditions: 5 µM
[24] = as §1, with “P-01” for “A-07”; set-up: dose 5 uM, timepoint 0, 0.75, 1.5, 3, 6, 9, 12 hours; conditions: 5 µM
[25] = as §1, with “A-02” for “A-07”; set-up: dose 5 uM, timepoint 0, 0.75, 1.5, 3, 6, 9, 12 hours; conditions: 5 µM
[26] = as §1, with “T-02” for “A-07”, “microaerobic” for “anaerobic”; set-up: dose 5 uM, timepoint 0, 0.75, 1.5, 3, 6, 9, 12 hours; conditions: 5 µM
[27] = as §1, with “A-05” for “A-07”; set-up: dose 5 uM, timepoint 0, 0.75, 1.5, 3, 6, 9, 12 hours; conditions: 5 µM
[28] = as §1, with “T-03” for “A-07”; set-up: dose 5 uM, timepoint 0, 0.75, 1.5, 3, 6, 9, 12 hours; conditions: 5 µM
[29] = The drug is tested on Lactobacillus paracasei strain: ATCC27092 for biotransformation under microaerobic condition. The drug concentrations were measured over 6 timepoints collected between 0 and 12 hours of incubation by liquid-chromatography-coupled mass spectrometry (LC–MS); set-up: dose 5 uM, timepoint 0, 1.5, 3, 6, 9, 12 hours; conditions: lacticaseibacillus paracasei, 5 µM
[30] = The drug is tested on Lactobacillus reuteri strain: DSM20016 for biotransformation under microaerobic condition. The drug concentrations were measured over 6 timepoints collected between 0 and 12 hours of incubation by liquid-chromatography-coupled mass spectrometry (LC–MS); set-up: dose 5 uM, timepoint 0, 1.5, 3, 6, 9, 12 hours; conditions: limosilactobacillus reuteri, 5 µM
[31] = The drug is tested on Actinomyces naeslundi strain: DSM43013 for biotransformation under microaerobic condition. The drug concentrations were measured over 6 timepoints collected between 0 and 12 hours of incubation by liquid-chromatography-coupled mass spectrometry (LC–MS); set-up: dose 5 uM, timepoint 0, 1.5, 3, 6, 9, 12 hours; conditions: actinomyces naeslundii, 5 µM

Measured: Bacterial Biotransformation

C[C@]12CCC(=O)C=C1CC[C@@H]1[C@@H]2C(=O)C[C@@]2(C)[C@H]1CC[C@]2(O)C(=O)CO [CORTISONE]
Compound metabolized: [1] | [2] | [4] | [5] | [6] | [7] | [9] | [12] | [13] | [21] | [24] | [25] | [26] | [27]
Compound NOT metabolized: all other assays above

C[C@@H](NCCCc1cccc(C(F)(F)F)c1)c1cccc2ccccc12
Compound NOT metabolized: all assays above

C[C@]12CCC(=O)C=C1CC[C@@H]1[C@@H]2[C@@H](O)C[C@@]2(C)[C@H]1CC[C@]2(O)C(=O)CO [HYDROCORTISONE]
Compound metabolized: [1] | [2] | [4] | [5] | [6] | [7] | [9] | [12] | [21] | [24] | [25] | [26] | [27]
Compound NOT metabolized: all other assays above
